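All cell lines were grown in 96-well plates and treated with compound for 48 hours. GI50: concentration for 50% inhibition of growth. TGI marks complete inhibition of growth.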
Tests used:
Assay in all cases: DTP human tumour cell line panel, 48 h
786-0 renal = test system: 786-0 renal
CCRF-CEM leukemia = test system: CCRF-CEM leukemia
MDA-MB-435 = test system: MDA-MB-435
RXF 393 renal = test system: RXF 393 renal
SF-295 CNS = test system: SF-295 CNS
SK-MEL-2 melanoma = test system: SK-MEL-2 melanoma
SK-MEL-5 melanoma = test system: SK-MEL-5 melanoma
SK-OV-3 ovarian = test system: SK-OV-3 ovarian
SW-620 colon = test system: SW-620 colon
UACC-257 melanoma = test system: UACC-257 melanoma

## COc1ccc(N=C2NN=C(c3c[nH]c4ccccc34)CS2)cc1OC
786-0 renal
  GI50: 12 µM
  TGI: > 91.5 µM
CCRF-CEM leukemia
  GI50: 3.7 µM
  TGI: > 100 µM
MDA-MB-435
  GI50: 1.3 µM
  TGI: 4 µM
RXF 393 renal
  GI50: 6.19 µM
  TGI: > 25.7 µM
SF-295 CNS
  GI50: 4.29 µM
  TGI: > 100 µM
SK-MEL-2 melanoma
  GI50: > 100 µM
  TGI: > 100 µM
SK-MEL-5 melanoma
  GI50: 3.6 µM
  TGI: 23.4 µM
SK-OV-3 ovarian
  GI50: 14.2 µM
  TGI: > 100 µM
SW-620 colon
  GI50: 5.68 µM
  TGI: > 60.4 µM
UACC-257 melanoma
  GI50: 11.1 µM
  TGI: > 56.6 µM

## C=C(CC1(CC(=C)c2ccc(C(=O)O)cc2)C(=O)N(C)C(=O)N(C)C1=O)c1ccc(C(=O)O)cc1
786-0 renal
  GI50: > 100 µM
  TGI: > 100 µM
CCRF-CEM leukemia
  GI50: 65.2 µM
  TGI: > 100 µM
MDA-MB-435
  GI50: 51.7 µM
  TGI: > 100 µM
RXF 393 renal
  GI50: > 100 µM
  TGI: > 100 µM
SF-295 CNS
  GI50: > 100 µM
  TGI: > 100 µM
SK-MEL-2 melanoma
  GI50: > 100 µM
  TGI: > 100 µM
SK-MEL-5 melanoma
  GI50: 73.1 µM
  TGI: > 100 µM
SK-OV-3 ovarian
  GI50: 6.02 µM
  TGI: 58.7 µM
SW-620 colon
  GI50: > 100 µM
  TGI: > 100 µM
UACC-257 melanoma
  GI50: 34.9 µM
  TGI: > 100 µM

## O=C(Cc1nc2ccc([N+](=O)[O-])cc2[nH]c1=O)C(=O)Nc1cc(Cl)c(Cl)cc1Cl
786-0 renal
  TGI: > 100 µM
CCRF-CEM leukemia
  TGI: > 100 µM
MDA-MB-435
  TGI: > 100 µM
RXF 393 renal
  TGI: > 100 µM
SF-295 CNS
  TGI: > 100 µM
SK-MEL-2 melanoma
  TGI: > 100 µM
SK-MEL-5 melanoma
  TGI: > 100 µM
SK-OV-3 ovarian
  TGI: > 100 µM
SW-620 colon
  TGI: > 100 µM
UACC-257 melanoma
  TGI: > 100 µM

## CCNC(=O)Oc1ccc(/C(=C(\C)c2ccc(Cl)cc2)c2ccc(OCCN3CCCCC3)cc2)cc1
786-0 renal
  GI50: 1.79 µM
  TGI: 3.43 µM
CCRF-CEM leukemia
  GI50: 3.26 µM
  TGI: 11.8 µM
MDA-MB-435
  GI50: 3.39 µM
  TGI: 14.1 µM
RXF 393 renal
  GI50: 2.19 µM
  TGI: 8.77 µM
SF-295 CNS
  GI50: 1.95 µM
  TGI: 4.36 µM
SK-MEL-2 melanoma
  GI50: 5.49 µM
  TGI: 19.2 µM
SK-MEL-5 melanoma
  GI50: 1.79 µM
  TGI: 3.17 µM
SK-OV-3 ovarian
  GI50: 8.52 µM
  TGI: 21.3 µM
SW-620 colon
  GI50: 2.2 µM
  TGI: 4.97 µM
UACC-257 melanoma
  GI50: 2.38 µM
  TGI: 5.12 µM

## CN(C)c1ccc(Sc2ccc3nc(N)nc(N)c3c2)cc1
786-0 renal
  GI50: 0.495 µM
  TGI: 2.5 µM
CCRF-CEM leukemia
  GI50: 0.906 µM
  TGI: 30.1 µM
MDA-MB-435
  GI50: 0.542 µM
  TGI: 14.2 µM
RXF 393 renal
  GI50: 1.06 µM
  TGI: 11.3 µM
SF-295 CNS
  GI50: 0.537 µM
  TGI: 14.1 µM
SK-MEL-2 melanoma
  GI50: 3.84 µM
  TGI: 16.1 µM
SK-MEL-5 melanoma
  GI50: 0.503 µM
  TGI: 4.78 µM
SK-OV-3 ovarian
  GI50: 2.71 µM
  TGI: 16.8 µM
SW-620 colon
  GI50: 0.318 µM
  TGI: 2.1 µM
UACC-257 melanoma
  GI50: 1.09 µM
  TGI: 4.91 µM

## CC(=O)N[C@@H]1CCC[C@H](C(=O)Nc2cc(-c3cnn4c3CC(C)(C)C4)c(Cl)cn2)C1
786-0 renal
  GI50: < 0.01 µM
  TGI: 29.6 µM
CCRF-CEM leukemia
  GI50: < 0.01 µM
  TGI: 0.315 µM
MDA-MB-435
  GI50: < 0.013 µM
  TGI: 11.9 µM
RXF 393 renal
  GI50: < 0.01 µM
  TGI: < 0.01 µM
SF-295 CNS
  GI50: < 0.0125 µM
  TGI: > 100 µM
SK-MEL-2 melanoma
  GI50: 0.0121 µM
  TGI: 0.041 µM
SK-MEL-5 melanoma
  GI50: < 0.01 µM
  TGI: < 0.0406 µM
SK-OV-3 ovarian
  GI50: 0.0633 µM
  TGI: > 100 µM
SW-620 colon
  GI50: < 0.01 µM
  TGI: > 100 µM
UACC-257 melanoma
  GI50: 0.0227 µM
  TGI: 12 µM

## COC(=O)Nc1nc2ccc(Sc3ccc(NC(=O)Nc4cc(C(F)(F)F)ccc4F)cc3)cc2[nH]1
786-0 renal
  GI50: 5.64 µM
  TGI: 13.8 µM
CCRF-CEM leukemia
  GI50: 3.3 µM
  TGI: 12.5 µM
MDA-MB-435
  GI50: 0.605 µM
  TGI: 2.71 µM
RXF 393 renal
  GI50: 3.29 µM
  TGI: 8.05 µM
SF-295 CNS
  GI50: 1.96 µM
  TGI: 7.52 µM
SK-MEL-2 melanoma
  GI50: 3.15 µM
  TGI: 10.6 µM
SK-MEL-5 melanoma
  GI50: 0.95 µM
  TGI: 11.7 µM
SK-OV-3 ovarian
  GI50: 5.1 µM
  TGI: 14.3 µM
SW-620 colon
  GI50: 1.43 µM
  TGI: 5.52 µM
UACC-257 melanoma
  GI50: 4.63 µM
  TGI: 25 µM

Source: PubChem BioAssay (NCI)
